Data reported in patent publication US12365667B2, “Sulfone pyridine alkyl amide-substituted heteroaryl compounds” (BRISTOL-MYERS SQUIBB COMPANY, priority 2017, dated 2025).
pIC50: −log10 of the molar value.

tested on: IFNα-induced STAT phosphorylation (pSTAT5) in human whole blood; experiment: IFNα-Induced STAT Phosphorylation in Human Whole Blood; format: cell-based; conditions: 1 h incubation with compound, 1000 U/mL recombinant human IFNα A/D for 15 min, pSTAT5 in CD3 positive population, read-out: IFNα-Induced Stat Phosph. (IC50)
Method: IFNα-Induced STAT Phosphorylation in Human Whole Blood
After an hour long incubation with compound, human whole blood (drawn with either EDTA or ACD-A as anti-coagulant) was stimulated with 1000 U/mL recombinant human IFNα A/D (R&D Systems 11200-2) for 15 min. The stimulation was stopped by adding Fix/Lyse buffer (BD 558049). Cells were stained with a CD3 FITC antibody (BD 555916), washed, and permeabilized on ice using Perm III buffer (BD 558050). Cells were then stained with an Alexa-Fluor 647 pSTAT5 (pY694) antibody (BD 612599) for 30 min prior to analysis on the FACS Canto II. The amount of pSTAT5 expression was quantitated by median fluorescence intensity after gating on the CD3 positive population.

Structure (SMILES)	pIC50
CNC(=O)c1nnc(Nc2ccc(C(C)(C)NC(=O)OC(C)C)cn2)cc1Nc1ncccc1S(C)(=O)=O [Example 78]	7.40
CNC(=O)c1nnc(Nc2ccc(C(C)(C)O)cn2)cc1Nc1nc(OC)ccc1S(C)(=O)=O [Example 201]	7.62
CCNC(=O)c1nnc(Nc2cc(C3CC3)nc(C)n2)cc1Nc1ncccc1S(C)(=O)=O [compound 212]	5.97
CCNC(=O)Nc1cc(Nc2ncccc2S(C)(=O)=O)c(C(=O)NC)nn1 [Example 121]	7.41
CNC(=O)c1nnc(Nc2ccc(-c3ccccc3)nn2)cc1Nc1ncccc1S(C)(=O)=O [Example 106]	6.91
CNC(=O)c1nnc(NC(=O)C2CC2(C)C)cc1Nc1nc(C)ccc1S(C)(=O)=O (stereo not shown) [Example 198]	6.58
CNC(=O)c1cnc(Nc2cc(C3CC3)nc(C)n2)cc1Nc1ncccc1S(C)(=O)=O [Example 229]	7.33
CNC(=O)c1nnc(Nc2cc(C)n(C)n2)cc1Nc1ncccc1S(C)(=O)=O [Example 17]	7.74
CNC(=O)c1nnc(Nc2cc(C(C)(C)NC(C)=O)ccn2)cc1Nc1ncccc1S(C)(=O)=O [Example 70]	5.96
CNC(=O)c1nnc(NC(=O)OC(C)C)cc1Nc1ncccc1S(C)(=O)=O [Example 134]	6.53
CNC(=O)c1nnc(NC(=O)[C@@H]2C[C@H]2C)cc1Nc1ncccc1S(C)(=O)=O [Example 46]	7.28
CNC(=O)c1nnc(NC(=O)C(C)C)cc1Nc1ncccc1S(C)(=O)=O [Example 131]	6.36
CNC(=O)c1nnc(NC(=O)C2CC2)cc1Nc1nc(C)ccc1S(C)(=O)=O [Example 187]	7.49
CNC(=O)c1nnc(Nc2ccc(C(C)(C)NC(=O)OC)cn2)cc1Nc1ncccc1S(C)(=O)=O [Example 74]	8.40
CCOC(=O)NC(C)(C)c1ccc(Nc2cc(Nc3ncccc3S(C)(=O)=O)c(C(=O)NC)nn2)nc1 [Example 79]	7.62
CNC(=O)c1nnc(Nc2ccn(C)n2)cc1Nc1nc(OC)ccc1S(C)(=O)=O [Example 204]	6.24
CCCC(=O)Nc1cc(Nc2ncccc2S(C)(=O)=O)c(C(=O)NC)nn1 [Example 108]	6.78
CNC(=O)c1nnc(Nc2ccc(-c3c(F)cccc3F)nn2)cc1Nc1nc(C)ccc1S(C)(=O)=O [Example 184]	6.58
CCOC(=O)Nc1cc(Nc2ncccc2S(C)(=O)=O)c(C(=O)NC)nn1 [Example 132]	6.68
CNC(=O)c1nnc(Nc2cc(C)nc(C)n2)cc1Nc1ncccc1[S+](C)[O-] (stereo not shown) [Example 254]	6.73
CNC(=O)c1nnc(NC(=O)C2CC2)cc1Nc1nc(OC)ccc1S(C)(=O)=O [Example 200]	6.70
CNC(=O)c1nnc(NC(=O)C2CCC2)cc1Nc1ncccc1S(C)(=O)=O [Example 9]	7.11
CNC(=O)c1nnc(NC(=O)[C@@H]2C[C@@H]2C)cc1Nc1ncccc1S(C)(=O)=O [Example 48]	7.40

The remaining lines, values ahead:

pIC50	Structure (SMILES)
7.52	CNC(=O)c1nnc(Nc2cc(C(F)(F)F)c(C(=O)N(C)C)cn2)cc1Nc1ncccc1S(C)(=O)=O [Example 50]
6.52	CNC(=O)c1nnc(Nc2cncc(C(F)(F)F)n2)cc1Nc1ncccc1S(C)(=O)=O [Example 127]
7.74	CNC(=O)c1nnc(Nc2ccc(N(C)C)nn2)cc1Nc1ncccc1S(C)(=O)=O [Example 38]
7.05	CNC(=O)c1nnc(Nc2cc(N3CCC3)ncn2)cc1Nc1ncccc1S(C)(=O)=O [Example 35]
7.33	CNC(=O)c1nnc(Nc2cc(C(F)(F)F)n(C)n2)cc1Nc1ncccc1S(C)(=O)=O [Example 88]
7.82	CNC(=O)c1nnc(Nc2cnc(COC)cn2)cc1Nc1ncccc1S(C)(=O)=O [Example 42]
7.12	CNC(=O)c1nnc(Nc2cc(C(C)(C)N(C)C)ccn2)cc1Nc1ncccc1S(C)(=O)=O [Example 73]
8.22	CNC(=O)c1nnc(Nc2ccc(COC)cn2)cc1Nc1ncccc1S(C)(=O)=O [Example 154]
7.96	CNC(=O)c1nnc(Nc2ccc(C)nn2)cc1Nc1ncccc1S(C)(=O)=O [Example 85]
7.34	CNC(=O)c1nnc(Nc2ccc(-c3c(F)cccc3F)nn2)cc1Nc1ncccc1S(C)(=O)=O [Example 104]
7.06	CNC(=O)c1nnc(Nc2cc(C(F)(F)F)ncn2)cc1Nc1ncccc1S(C)(=O)=O [Example 27]
7.89	CNC(=O)c1nnc(Nc2cccc(F)n2)cc1Nc1ncccc1S(C)(=O)=O [Example 5]
6.66	CNC(=O)c1nnc(Nc2cc(C3CC3)c(C#N)cn2)cc1Nc1ncccc1S(C)(=O)=O [Example 59]
7.40	CNC(=O)c1nnc(Nc2ccc(F)nn2)cc1Nc1ncccc1S(C)(=O)=O [Example 86]
8.70	CNC(=O)c1nnc(Nc2ccc(C(C)(C)O)c(F)n2)cc1Nc1ncccc1S(C)(=O)=O [Example 151]
7.40	CNC(=O)c1nnc(Nc2cccc(C3CC3)n2)cc1Nc1ncccc1S(C)(=O)=O [Example 152]
7.03	CNC(=O)c1cnc(Nc2ccc(C(F)(F)F)nn2)cc1Nc1ncccc1S(C)(=O)=O [Example 223]
7.33	CNC(=O)c1nnc(Nc2cc(Cl)n(C)n2)cc1Nc1ncccc1S(C)(=O)=O [Example 161]
7.22	CNC(=O)c1nnc(Nc2ccn(C3CC3)n2)cc1Nc1ncccc1S(C)(=O)=O [Example 167]
6.61	CNC(=O)c1nnc(Nc2ccnc(-c3ccccc3)n2)cc1Nc1ncccc1S(C)(=O)=O [Example 111]
7.59	CNC(=O)c1nnc(Nc2cnc(C3CC3)cn2)cc1Nc1ncccc1S(C)(=O)=O [Example 37]
7.10	CNC(=O)c1nnc(Nc2ccc(OCCOC)nn2)cc1Nc1ncccc1S(C)(=O)=O [Example 64]
7.82	CCc1cnc(Nc2cc(Nc3ncccc3S(C)(=O)=O)c(C(=O)NC)nn2)cn1 [Example 39]
7.62	CNC(=O)c1nnc(Nc2cc(C)on2)cc1Nc1ncccc1S(C)(=O)=O [Example 58]

same assay, conditions: Homo sapiens, 1 h incubation with compound, 1000 U/mL recombinant human IFNα A/D for 15 min, pSTAT5 in CD3 positive population, read-out: IFNα-Induced Stat Phosph. (IC50)

pIC50	Structure (SMILES)
8.70	[2H]C([2H])([2H])NC(=O)c1nnc(Nc2ccc(C(C)(C)O)cn2)cc1Nc1ncccc1S(C)(=O)=O [Example 13, 6-((5-(2-hydroxypropan-2-yl)pyridin-2-yl)amino)-N-(methyl-d3)-4-((3-(methylsulfonyl)pyridin-2-yl)amino)pyridazine-3-carboxamide]
8.22	[2H]C([2H])([2H])NC(=O)c1nnc(Nc2ccc(C(C)C)nn2)cc1Nc1ncccc1S(C)(=O)=O [Example 247, 6-((6-isopropylpyridazin-3-yl)amino)-N-(methyl-d3)-4-((3-(methylsulfonyl)pyridin-2-yl)amino)pyridazine-3-carboxamide]
5.99	[2H]C([2H])([2H])NC(=O)c1nnc(NC(=O)CC)cc1Nc1nc(OC)ccc1S(C)(=O)=O [Example 199, 4-((6-methoxy-3-(methylsulfonyl)pyridin-2-yl)amino)-N-(methyl-d3)-6-propionamidopyridazine-3-carboxamide]
7.28	[2H]C([2H])([2H])NC(=O)c1nnc(NC(=O)[C@@H]2CC23CC3)cc1Nc1ncccc1S(C)(=O)=O [Example 252, (R)—N-(methyl-d3)-4-((3-(methylsulfonyl)pyridin-2-yl)amino)-6-(spiro[2.2]pentane-1-carboxamido)pyridazine-3-carboxamide]
6.88	[2H]C([2H])([2H])NC(=O)c1nnc(NC(=O)[C@@H]2C[C@H]2C(F)(F)F)cc1Nc1ncccc1S(C)(=O)=O [Example 176, N-(methyl-d3)-4-((3-(methylsulfonyl)pyridin-2-yl)amino)-6-((1R,2R)-2-(trifluoromethyl)cyclopropane-1-carboxamido)pyridazine-3-carboxamide]
7.02	[2H]C([2H])([2H])NC(=O)c1nnc(NC(C)=O)cc1Nc1ncccc1S(C)(=O)=O [Example 163, 6-acetamido-N-trideuteromethyl-4-((3-(methylsulfonyl)pyridin-2-yl)amino)pyridazine-3-carboxamide]
7.68	[2H]C([2H])([2H])NC(=O)c1cnc(Nc2ccc(F)cn2)cc1Nc1ncccc1S(C)(=O)=O [Example 215, 6-((5-fluoropyridin-2-yl)amino)-N-(methyl-d3)-4-((3-(methylsulfonyl)pyridin-2-yl)amino)nicotinamide]
5.74	[2H]C([2H])([2H])NC(=O)c1nnc(NC(=O)C2CC2(Cl)Cl)cc1Nc1ncccc1S(C)(=O)=O (stereo not shown) [Example 174, 6-(2,2-dichlorocyclopropane-1-carboxamido)-N-(methyl-d3)-4-((3-(methylsulfonyl)pyridin-2-yl)amino)pyridazine-3-carboxamide]
6.94	COc1ccc(Nc2cc(Nc3ncccc3S(C)(=O)=O)c(C(N)=O)nn2)nn1 [Example 213, 6-((6-methoxypyridazin-3-yl)amino)-4-((3-(methylsulfonyl)pyridin-2-yl)amino)pyridazine-3-carboxamide]
6.19	[2H]C([2H])([2H])NC(=O)c1nnc(NC(=O)C2CC(F)(F)C2)cc1Nc1ncccc1S(C)(=O)=O [Example 177, 6-(3,3-difluorocyclobutane-1-carboxamido)-N-(methyl-d3)-4-((3-(methylsulfonyl)pyridin-2-yl)amino)pyridazine-3-carboxamide]
6.32	[2H]C([2H])([2H])NC(=O)c1nnc(Nc2cc(C)nc(C)n2)cc1Nc1nc(F)ccc1S(C)(=O)=O [Example 178, 6-((2,6-dimethylpyrimidin-4-yl)amino)-4-((6-fluoro-3-(methylsulfonyl)pyridin-2-yl)amino)-N-(methyl-d3)pyridazine-3-carboxamide]
